ChEMBL document CHEMBL2311512, “Addition of thiols to o-quinone methide: new 2-hydroxy-3-phenylsulfanylmethyl[1,4]naphthoquinones and their activity against the human malaria parasite Plasmodium falciparum (3D7)” (Eur J Med Chem, 2013)

Test system: Plasmodium falciparum
Experiment: Antiplasmodial activity against Plasmodium falciparum 3D7 infected in RBC by flow cytometry analysis
Format: functional, organism-based

How did the IC50 turn out when CSc1ccc(SCC2=C(O)C(=O)c3ccccc3C2=O)cc1 was run?
Its IC50 is 22.3 µM.

Which IC50 does the source give for O=C1C(O)=C(CSc2ccccc2)C(=O)c2ccccc21 here?
Its IC50 is 27.1 µM.

For CCCSCC1=C(O)C(=O)c2ccccc2C1=O, which IC50 is on record?
The IC50 was 31.8 µM.

Cc1cccc(SCC2=C(O)C(=O)c3ccccc3C2=O)c1 was tested. Which IC50 did it give?
Its IC50 is 5.4 µM.

For Cc1ccc(SCC2=C(O)C(=O)c3ccccc3C2=O)cc1, which IC50 is on record?
The IC50 was 6.8 µM.

With O=C1C(O)=C(CSc2ccc(F)cc2)C(=O)c2ccccc21 as the molecule, how does the IC50 read?
The IC50 was 7 µM.

With COc1ccc(SCC2=C(O)C(=O)c3ccccc3C2=O)cc1 as the molecule, how does the IC50 read?
The IC50 was 9.3 µM.

With Cc1ccccc1SCC1=C(O)C(=O)c2ccccc2C1=O as the molecule, how does the IC50 read?
Its IC50 is 9.7 µM.

How did the IC50 turn out when O=C1C(O)=C(CSc2ccc([N+](=O)[O-])cc2)C(=O)c2ccccc21 was run?
The IC50 was 14.4 µM.

Which IC50 does the source give for O=C1C(O)=C(CSc2ccc3ccccc3c2)C(=O)c2ccccc21 here?
Its IC50 is 14.5 µM.

O=C1C(=O)c2ccccc2C(O)=C1CSc1ccc(Cl)cc1 was tested. Which IC50 did it give?
Its IC50 is 20 µM.

For CSc1ccc(SC(C2=C(O)C(=O)c3ccccc3C2=O)c2ccccc2)cc1 (racemic), which IC50 is on record?
Its IC50 is 18.2 µM.

Which IC50 does the source give for O=C1C(O)=C(C(Sc2ccc3ccccc3c2)c2ccc([N+](=O)[O-])cc2)C(=O)c2ccccc21 (racemic) here?
The IC50 was 19.9 µM.

Cc1ccc(SC(C2=C(O)C(=O)c3ccccc3C2=O)c2ccc([N+](=O)[O-])cc2)cc1 (racemic) was tested. Which IC50 did it give?
The IC50 was 27 µM.

For CCCSC(C1=C(O)C(=O)c2ccccc2C1=O)c1ccc([N+](=O)[O-])cc1 (racemic), which IC50 is on record?
Its IC50 is 27.8 µM.

With Cc1cccc(SC(C2=C(O)C(=O)c3ccccc3C2=O)c2ccccc2)c1 (racemic) as the molecule, how does the IC50 read?
The IC50 was 34.2 µM.

Cc1ccccc1SC(C1=C(O)C(=O)c2ccccc2C1=O)c1ccc([N+](=O)[O-])cc1 (racemic) was tested. Which IC50 did it give?
The IC50 was 6.6 µM.

O=C1C(O)=C(C(Sc2ccc(O)cc2)c2ccc([N+](=O)[O-])cc2)C(=O)c2ccccc21 (racemic) was tested. Which IC50 did it give?
The IC50 was 7.5 µM.

How did the IC50 turn out when O=C1C(O)=C(C(Sc2ccc(Cl)cc2)c2ccc([N+](=O)[O-])cc2)C(=O)c2ccccc21 (racemic) was run?
The IC50 was 7.5 µM.

For Cc1cccc(SC(C2=C(O)C(=O)c3ccccc3C2=O)c2ccc([N+](=O)[O-])cc2)c1 (racemic), which IC50 is on record?
Its IC50 is 10.7 µM.

Which IC50 does the source give for CCCSC(C1=C(O)C(=O)c2ccccc2C1=O)c1ccccc1 (racemic) here?
The IC50 was 13.8 µM.

For O=C1C(O)=C(C(Sc2ccc([N+](=O)[O-])cc2)c2ccccc2)C(=O)c2ccccc21 (racemic), which IC50 is on record?
Its IC50 is 13.9 µM.

Which IC50 does the source give for O=C1C(O)=C(C(Sc2ccc(F)cc2)c2ccc([N+](=O)[O-])cc2)C(=O)c2ccccc21 (racemic) here?
Its IC50 is 14.3 µM.

For O=C1C(O)=C(C(Sc2ccccc2)c2ccc([N+](=O)[O-])cc2)C(=O)c2ccccc21 (racemic), which IC50 is on record?
The IC50 was 16.8 µM.

How did the IC50 turn out when Cc1ccccc1SC(C1=C(O)C(=O)c2ccccc2C1=O)c1ccccc1 (racemic) was run?
The IC50 was 17.6 µM.

With O=C1C(O)=C([C@H]2CC[C@H](c3ccc(Cl)cc3)CC2)C(=O)c2ccccc21 [ATOVAQUONE] as the molecule, how does the IC50 read?
The IC50 was 0.003 µM.
